Assay results from ChEMBL document CHEMBL1201862, “PubChem BioAssay data set” (2004).
Calls of active or inactive are those of the source.

Columns and labels:
Aminopeptidase N = target: T1, Aminopeptidase N (Plasmodium falciparum FcB1/Columbia, UniProt O96935); test: P. falciparum M1AAP inhibitors, biochemical, fluorogenic H-Leu-NHMec substrate, 1536-well (AID 1445); set-up: species or system Plasmodium falciparum 3D7, 3D7
T1 sequence (O96935 whole entry): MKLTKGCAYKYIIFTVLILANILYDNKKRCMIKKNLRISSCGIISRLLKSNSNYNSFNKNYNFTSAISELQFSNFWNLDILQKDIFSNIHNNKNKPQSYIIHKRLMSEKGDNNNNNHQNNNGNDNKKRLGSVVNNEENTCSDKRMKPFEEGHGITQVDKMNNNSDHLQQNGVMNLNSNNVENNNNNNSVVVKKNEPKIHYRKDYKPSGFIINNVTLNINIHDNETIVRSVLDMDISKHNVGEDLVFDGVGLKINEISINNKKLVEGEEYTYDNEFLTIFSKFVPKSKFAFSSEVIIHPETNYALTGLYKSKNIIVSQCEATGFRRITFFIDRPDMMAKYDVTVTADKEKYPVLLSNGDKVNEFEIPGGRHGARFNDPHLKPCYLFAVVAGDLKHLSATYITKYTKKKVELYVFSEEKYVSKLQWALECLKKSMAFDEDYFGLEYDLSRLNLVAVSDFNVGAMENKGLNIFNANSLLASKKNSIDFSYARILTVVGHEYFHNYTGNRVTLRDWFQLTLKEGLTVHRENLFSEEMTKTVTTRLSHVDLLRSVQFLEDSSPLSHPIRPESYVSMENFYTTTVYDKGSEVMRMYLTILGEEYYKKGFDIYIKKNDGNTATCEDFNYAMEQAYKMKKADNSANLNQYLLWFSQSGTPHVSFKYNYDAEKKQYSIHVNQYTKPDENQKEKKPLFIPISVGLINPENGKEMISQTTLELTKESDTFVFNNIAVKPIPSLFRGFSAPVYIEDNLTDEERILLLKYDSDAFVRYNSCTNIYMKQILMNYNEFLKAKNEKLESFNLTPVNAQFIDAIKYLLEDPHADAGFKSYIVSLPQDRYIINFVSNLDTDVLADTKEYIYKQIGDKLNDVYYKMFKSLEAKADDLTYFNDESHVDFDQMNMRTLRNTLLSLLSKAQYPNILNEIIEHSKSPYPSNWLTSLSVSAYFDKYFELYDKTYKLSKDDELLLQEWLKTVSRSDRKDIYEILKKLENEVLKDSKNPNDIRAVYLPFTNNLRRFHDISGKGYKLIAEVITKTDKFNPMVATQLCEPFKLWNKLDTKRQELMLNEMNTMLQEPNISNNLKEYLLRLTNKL

[1] = target: T2, Probable nicotinate-nucleotide adenylyltransferase (Staphylococcus aureus (strain N315), UniProt P65502); type: functional, Staphylococcus aureus subsp. aureus N315; conditions: read-out: IC50_Mean;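 as to IC50 Mean: confirmatory dose-response retesting of NadD inhibitor hits first found in an ultra-high-throughput screen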
T2 sequence (P65502 whole entry): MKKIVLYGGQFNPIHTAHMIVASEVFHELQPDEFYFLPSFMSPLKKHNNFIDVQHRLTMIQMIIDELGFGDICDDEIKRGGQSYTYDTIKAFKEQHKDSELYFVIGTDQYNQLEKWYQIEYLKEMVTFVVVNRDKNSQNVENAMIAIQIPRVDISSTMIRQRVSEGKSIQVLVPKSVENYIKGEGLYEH

[2] = target: T2, Probable nicotinate-nucleotide adenylyltransferase; type: functional, Staphylococcus aureus subsp. aureus N315
Cytochrome P450 2C19 = Cytochrome P450 2C19 (Homo sapiens, UniProt P33261); test: Cytochrome panel assay with activity outcomes. Panel member name: p450-cyp2c19 Compounds with AC50 equal or less than 10 uM are considered active; type: functional
Cytochrome P450 2C19, sequence (P33261 whole entry): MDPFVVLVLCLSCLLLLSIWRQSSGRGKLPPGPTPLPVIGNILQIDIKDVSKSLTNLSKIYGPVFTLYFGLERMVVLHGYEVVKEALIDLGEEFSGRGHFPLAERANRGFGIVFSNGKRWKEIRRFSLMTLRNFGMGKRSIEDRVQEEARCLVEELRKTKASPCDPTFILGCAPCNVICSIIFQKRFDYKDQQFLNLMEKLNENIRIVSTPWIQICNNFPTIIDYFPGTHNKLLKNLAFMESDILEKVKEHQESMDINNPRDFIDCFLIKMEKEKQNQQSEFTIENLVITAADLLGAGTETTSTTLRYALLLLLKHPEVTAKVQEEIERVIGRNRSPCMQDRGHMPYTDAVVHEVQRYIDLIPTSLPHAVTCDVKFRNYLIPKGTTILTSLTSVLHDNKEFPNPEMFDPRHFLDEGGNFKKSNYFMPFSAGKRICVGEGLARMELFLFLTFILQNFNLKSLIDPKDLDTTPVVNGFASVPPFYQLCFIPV

[3] = target: T3, High affinity choline transporter 1 (Homo sapiens, UniProt Q9GZV3); test: CHT inhibitors, dose response, cell-based, 5-point CRC, membrane potential dye (AID 504840); type: functional
T3 sequence (Q9GZV3 whole entry): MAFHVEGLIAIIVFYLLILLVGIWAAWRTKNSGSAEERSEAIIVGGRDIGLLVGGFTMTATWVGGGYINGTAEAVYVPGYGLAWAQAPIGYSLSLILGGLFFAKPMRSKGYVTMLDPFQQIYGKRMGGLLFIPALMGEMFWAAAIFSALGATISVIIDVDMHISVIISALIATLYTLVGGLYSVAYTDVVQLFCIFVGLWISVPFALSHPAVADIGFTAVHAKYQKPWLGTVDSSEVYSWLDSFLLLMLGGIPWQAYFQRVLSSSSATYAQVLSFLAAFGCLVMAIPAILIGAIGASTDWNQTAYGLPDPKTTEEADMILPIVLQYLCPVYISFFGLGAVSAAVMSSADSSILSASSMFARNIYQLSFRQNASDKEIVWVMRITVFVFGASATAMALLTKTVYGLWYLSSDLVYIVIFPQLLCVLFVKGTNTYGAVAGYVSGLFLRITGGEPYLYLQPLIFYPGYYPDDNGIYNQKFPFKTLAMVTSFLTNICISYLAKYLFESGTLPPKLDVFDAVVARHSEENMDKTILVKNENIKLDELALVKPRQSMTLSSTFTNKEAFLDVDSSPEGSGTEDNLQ

[4] = target: Luciferin 4-monooxygenase (Photinus pyralis, UniProt P08659); test: firefly luciferase enzyme inhibitors, dose response, biochemical, luminescence (AID 1891)
Luciferin 4-monooxygenase, sequence (P08659 whole entry): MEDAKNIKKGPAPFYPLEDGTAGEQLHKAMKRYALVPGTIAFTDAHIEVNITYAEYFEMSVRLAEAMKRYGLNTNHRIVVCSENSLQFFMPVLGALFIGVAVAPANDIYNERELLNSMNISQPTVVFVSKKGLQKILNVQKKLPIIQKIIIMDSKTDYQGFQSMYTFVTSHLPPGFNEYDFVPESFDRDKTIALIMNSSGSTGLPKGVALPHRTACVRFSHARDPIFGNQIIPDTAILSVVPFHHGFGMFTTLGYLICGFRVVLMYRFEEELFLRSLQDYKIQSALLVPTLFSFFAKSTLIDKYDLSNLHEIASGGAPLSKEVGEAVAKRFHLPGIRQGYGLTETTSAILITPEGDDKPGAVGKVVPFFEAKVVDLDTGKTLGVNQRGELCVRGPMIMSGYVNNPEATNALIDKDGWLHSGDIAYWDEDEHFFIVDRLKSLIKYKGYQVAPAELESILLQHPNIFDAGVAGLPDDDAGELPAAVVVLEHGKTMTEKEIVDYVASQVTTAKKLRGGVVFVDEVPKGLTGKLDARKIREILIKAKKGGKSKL

Protein skinhead-1 = target: T4, Protein skinhead-1 (Caenorhabditis elegans, UniProt P34707); type: functional
T4 sequence (P34707 whole entry): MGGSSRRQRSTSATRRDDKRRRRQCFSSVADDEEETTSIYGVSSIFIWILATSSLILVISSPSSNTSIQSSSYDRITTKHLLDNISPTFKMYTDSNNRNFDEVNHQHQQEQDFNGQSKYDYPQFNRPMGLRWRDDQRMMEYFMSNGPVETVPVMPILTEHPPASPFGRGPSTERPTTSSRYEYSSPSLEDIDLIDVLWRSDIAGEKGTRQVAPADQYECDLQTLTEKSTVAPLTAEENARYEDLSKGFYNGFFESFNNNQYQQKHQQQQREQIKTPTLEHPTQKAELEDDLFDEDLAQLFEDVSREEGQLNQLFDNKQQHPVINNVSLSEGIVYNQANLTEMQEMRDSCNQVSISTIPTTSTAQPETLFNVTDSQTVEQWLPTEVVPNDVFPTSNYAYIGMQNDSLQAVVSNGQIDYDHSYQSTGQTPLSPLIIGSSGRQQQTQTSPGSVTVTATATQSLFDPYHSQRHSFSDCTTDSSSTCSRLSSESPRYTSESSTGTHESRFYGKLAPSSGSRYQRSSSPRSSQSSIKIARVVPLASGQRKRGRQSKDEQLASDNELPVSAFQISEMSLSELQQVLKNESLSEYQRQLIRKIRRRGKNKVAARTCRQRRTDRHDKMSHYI

[5] = Luminescence Cell-Based Dose Confirmation HTS to Identify Inhibitors of Platelet Dense Granule Release. [Related pubchem assays: 1663 (Primary HTS), 1678 (Summary of Project)]; type: functional
[6] = inhibitors of firefly luciferase expression or activity, dose response, H4 neuroglioma cells, luminescence (AID 1990); type: functional, cell-based
[7] = HepG2 cell cytotoxicity, dose response, cytotoxicity control for Shn3 inhibitor project, CellTiter-Glo, cherry-picked (AID 624134); type: functional, cell-based
[8] = Luminescence Cell-Based Dose Response HTS to Identify Inhibitors of 5'UTR Stem-Loop Driven Prion Protein mRNA Translation in H4 Neuroglioblastoma Cells. [Related pubchem assays: 1827 (Project Summary), 1813 (Primary HTS)]; type: functional
[9] = control 3'UTR Renilla luciferase suppression, dose response, counter-screen for Shn3 inhibitor project, cell-based, Clone20-Shn3RL, cherry-picked (AID 624133); type: functional
[10] = target: T5, Heat shock factor protein 1 (Mus musculus, UniProt P38532); test: inhibition of MG132-induced HSE-luciferase signal, confirmation, cell-based, NIH3T3, luminescence, dose retest (AID 2382); type: functional;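 also: NIH3T3 fibroblasts with HSF1-driven luciferase reporter stressed by proteasome inhibitor MG132; luminescence from HSF1-driven luciferase expression after 8 hours of MG132 stress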
T5 sequence (P38532 whole entry): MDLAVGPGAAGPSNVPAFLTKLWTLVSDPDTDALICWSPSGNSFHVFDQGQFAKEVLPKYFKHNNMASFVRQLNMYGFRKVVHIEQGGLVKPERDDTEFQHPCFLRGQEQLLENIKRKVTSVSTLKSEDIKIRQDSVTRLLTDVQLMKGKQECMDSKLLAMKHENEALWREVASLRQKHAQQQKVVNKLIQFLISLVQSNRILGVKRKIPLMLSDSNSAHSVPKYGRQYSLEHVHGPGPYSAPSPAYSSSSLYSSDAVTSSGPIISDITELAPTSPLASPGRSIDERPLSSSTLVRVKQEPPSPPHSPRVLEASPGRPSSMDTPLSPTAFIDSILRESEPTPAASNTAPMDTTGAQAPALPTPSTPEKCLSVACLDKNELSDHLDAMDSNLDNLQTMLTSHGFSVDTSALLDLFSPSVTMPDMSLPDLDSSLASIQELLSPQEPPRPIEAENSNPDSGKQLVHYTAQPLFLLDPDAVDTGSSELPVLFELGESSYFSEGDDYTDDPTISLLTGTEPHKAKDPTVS

[11] = inhibitors of SNCA 5'UTR-driven reporter translation, confirmation, H4 neuroglioma cells, luminescence (AID 1988); type: functional, cell-based
[12] = Shn3 3'UTR reporter inhibitors, dose response, cell-based, Clone20 osteoblasts, firefly luciferase, cherry-picked (AID 624132); type: functional;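 also: firefly luciferase luminescence from reporter carrying the Shn3 3'UTR in osteoblasts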
H9c2 = test: cells; type: functional, cell-based; conditions: Rattus norvegicus, H9c2, Myocardium;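 also: confirmatory concentration-response retest of ultra-high-throughput screening hits for modulation of myocardial damage; cell death induced by hydrogen peroxide oxidative stress; compound pretreatment for 60 min then peroxide exposure for 2 h; potency is for protecting the cells against peroxide damage rather than for killing them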
Paired box protein Pax-8 = Paired box protein Pax-8 (Homo sapiens, UniProt Q06710); test: inhibitors of PAX8-driven TPO luciferase reporter, dose response, RMG-I cells, cherry-pick (AID 687027); type: functional, cell-based;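 also: luciferase reporter driven by Pax8 target thyroperoxidase promoter measured by SteadyGlo luminescence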
Paired box protein Pax-8, sequence (Q06710 whole entry): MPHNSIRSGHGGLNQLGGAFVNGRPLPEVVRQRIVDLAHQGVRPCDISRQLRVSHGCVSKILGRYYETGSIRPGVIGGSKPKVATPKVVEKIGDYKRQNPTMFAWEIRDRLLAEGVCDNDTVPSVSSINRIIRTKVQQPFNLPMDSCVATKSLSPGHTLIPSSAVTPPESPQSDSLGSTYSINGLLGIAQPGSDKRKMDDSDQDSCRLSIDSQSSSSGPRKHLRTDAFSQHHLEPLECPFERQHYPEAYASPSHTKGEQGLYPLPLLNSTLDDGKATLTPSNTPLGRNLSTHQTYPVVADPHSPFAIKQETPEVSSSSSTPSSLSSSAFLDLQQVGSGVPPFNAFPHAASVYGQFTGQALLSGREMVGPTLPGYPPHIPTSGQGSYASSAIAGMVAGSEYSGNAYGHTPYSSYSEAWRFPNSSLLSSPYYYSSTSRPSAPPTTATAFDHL

Caspase-6 = target: T6, Caspase-6 (Homo sapiens, UniProt P55212); test: human caspase-6 inhibitors, dose response, biochemical, VEID-R110 fluorescence, cherry-pick (AID 720632)
T6 sequence (P55212 whole entry): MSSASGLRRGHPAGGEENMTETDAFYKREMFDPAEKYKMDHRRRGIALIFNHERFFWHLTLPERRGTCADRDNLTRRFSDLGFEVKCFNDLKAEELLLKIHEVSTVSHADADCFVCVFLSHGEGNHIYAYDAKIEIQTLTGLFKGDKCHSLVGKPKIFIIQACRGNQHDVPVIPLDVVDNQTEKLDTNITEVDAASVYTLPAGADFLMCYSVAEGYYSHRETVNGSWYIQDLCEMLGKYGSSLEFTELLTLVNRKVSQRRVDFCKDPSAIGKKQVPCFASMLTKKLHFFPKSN

Cc1ccc(S(=O)(=O)N(NC2=NS(=O)(=O)c3ccccc32)C(=O)c2ccccc2)cc1
IC50 (Aminopeptidase N): 46.8 µM (active)

O=C(COC(=O)c1ccc(Oc2ccccc2)cc1)Nc1nnc(-c2ccccc2)o1
IC50 [1]: 23.8 µM (active) | IC50 [2]: 9.58 µM (active)

Cc1ccc(C)c(NC(=O)C(OC(=O)c2ccc(NC(=O)CC#N)cc2)c2ccccc2)c1 (stereo not drawn)
IC50 [1]: 42.7 µM (active) | IC50 [2]: 11.4 µM (active)

CCOc1nc(N=C(N)N)nc2c(C)cccc12
IC50 (Aminopeptidase N): 7.38 µM (active) | AC50 (Cytochrome P450 2C19): inconclusive

c1ccc(CCCCN2C(Nc3ccccc3)=NC[C@@H]2Cc2ccccc2)cc1
IC50 [3]: 12 µM (active)

C[n+]1ccccc1COc1ccc(C(C)(C)C)cc1
IC50 [3]: 13.8 µM (active)

CCC(C)(C)n1nnnc1C(c1ccc2ncccc2c1)N1CCN(c2nc3ccccc3s2)CC1 (stereo not drawn)
IC50 (Aminopeptidase N): 51.1 µM (active)

CCc1cc(=O)oc2c(CN3CCN(C)CC3)c(O)c(Cl)cc12
IC50 (Aminopeptidase N): 35.9 µM (active)

COc1ccc2c(c1)sc1nc(-c3ccccc3)cn12
EC50 [4]: 669 nM (active) | IC50 (Protein skinhead-1): > 100 µM (inactive) | EC50 [5]: 4.62 µM (active) | EC50 [6]: 681 nM (active) | AC50 [7]: 42.3 µM (active) | EC50 [8]: 388 nM (active) | AC50 [9]: 13.2 µM (active) | EC50 [10]: 2.23 µM (active) | EC50 [11]: 299 nM (active) | AC50 [12]: 7.37 µM (active)

CN(C)C(=O)c1ccc(-c2nnc(O)c3ccccc23)cc1
IC50 (H9c2): > 79 µM (inactive)

COc1ccc(C(C(=O)NC2CCCCC2)N(C(=O)c2ccco2)c2ccccc2C(C)=O)cc1OC (stereo not drawn)
IC50 [3]: 2 µM (active)

CC(=O)c1cccc(-c2cnc3c(NC=O)cc(-c4cccc(C(=O)N(C)C)c4)cn23)c1
IC50 (H9c2): > 79 µM (inactive)

CC1CCCCN1CCNC(=O)CN1C(=O)CSc2ccc(S(=O)(=O)N3CCCCC3)cc21 (stereo not drawn)
IC50 [3]: 12.9 µM (active)

COc1ccc(-c2cnc3c(NC=O)cc(-c4cccc(NS(C)(=O)=O)c4)cn23)cc1OC
IC50 (H9c2): > 79 µM (inactive) | AC50 (Paired box protein Pax-8): 5.09 µM (active)

C/C(=N\Nc1ccc(C(=O)O)cc1)c1ccc(Br)cc1
AC50 (Caspase-6): 7.07 µM (active)

COc1ccc2ccccc2c1/C=N/NC(=O)c1nnn(-c2nonc2N)c1C(C)C
IC50 [1]: 78 µM (active) | IC50 [2]: 38 µM (active)

CCc1cccc2c(/C=N/NC(=O)c3cccc(S(=O)(=O)Nc4ccccc4Cl)c3)c[nH]c12
IC50 [1]: 31.2 µM (active) | IC50 [2]: 11.2 µM (active)

Cn1/c(=N/CC(O)COc2ccccc2)sc2ccccc21 (stereo not drawn)
IC50 [3]: 13.5 µM (active)
